Results reported in ChEMBL document CHEMBL1150007, “Novel indolactam-based inhibitors of matrix metalloproteinases” (Bioorg Med Chem Lett, 1995).
pKi: −log10 of the molar value.

Tests used:
[1] = target: T1, Interstitial collagenase (Homo sapiens, UniProt P03956); assay: Inhibition of human fibroblast collagenase, matrix metalloprotease-1
T1 sequence (P03956 whole entry): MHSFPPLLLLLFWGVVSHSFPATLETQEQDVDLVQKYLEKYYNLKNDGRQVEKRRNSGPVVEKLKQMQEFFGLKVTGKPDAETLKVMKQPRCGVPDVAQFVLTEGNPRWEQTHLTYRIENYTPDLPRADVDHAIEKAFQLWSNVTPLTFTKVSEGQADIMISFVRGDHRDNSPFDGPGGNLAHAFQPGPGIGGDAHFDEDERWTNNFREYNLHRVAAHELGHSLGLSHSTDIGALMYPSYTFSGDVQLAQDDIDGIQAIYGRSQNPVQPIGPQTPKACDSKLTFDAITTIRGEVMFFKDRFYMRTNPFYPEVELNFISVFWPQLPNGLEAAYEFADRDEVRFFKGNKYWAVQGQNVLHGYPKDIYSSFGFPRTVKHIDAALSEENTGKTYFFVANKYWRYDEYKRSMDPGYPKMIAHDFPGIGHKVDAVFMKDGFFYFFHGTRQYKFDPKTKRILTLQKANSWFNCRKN

[2] = target: T2, Matrilysin (Homo sapiens, UniProt P09237); assay: Inhibition of Matrix metalloprotease-7
T2 sequence (P09237 whole entry): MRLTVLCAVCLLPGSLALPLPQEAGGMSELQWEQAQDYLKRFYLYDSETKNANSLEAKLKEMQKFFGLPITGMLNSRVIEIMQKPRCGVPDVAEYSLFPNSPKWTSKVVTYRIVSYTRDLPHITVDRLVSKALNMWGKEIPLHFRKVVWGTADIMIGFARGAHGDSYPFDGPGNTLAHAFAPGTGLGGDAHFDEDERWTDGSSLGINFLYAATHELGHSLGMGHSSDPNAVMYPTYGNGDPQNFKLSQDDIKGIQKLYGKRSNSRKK

[3] = target: Neutrophil collagenase (Homo sapiens, UniProt P22894); assay: Inhibition of human Matrix metalloprotease-8
Chain of Neutrophil collagenase (P22894 whole entry): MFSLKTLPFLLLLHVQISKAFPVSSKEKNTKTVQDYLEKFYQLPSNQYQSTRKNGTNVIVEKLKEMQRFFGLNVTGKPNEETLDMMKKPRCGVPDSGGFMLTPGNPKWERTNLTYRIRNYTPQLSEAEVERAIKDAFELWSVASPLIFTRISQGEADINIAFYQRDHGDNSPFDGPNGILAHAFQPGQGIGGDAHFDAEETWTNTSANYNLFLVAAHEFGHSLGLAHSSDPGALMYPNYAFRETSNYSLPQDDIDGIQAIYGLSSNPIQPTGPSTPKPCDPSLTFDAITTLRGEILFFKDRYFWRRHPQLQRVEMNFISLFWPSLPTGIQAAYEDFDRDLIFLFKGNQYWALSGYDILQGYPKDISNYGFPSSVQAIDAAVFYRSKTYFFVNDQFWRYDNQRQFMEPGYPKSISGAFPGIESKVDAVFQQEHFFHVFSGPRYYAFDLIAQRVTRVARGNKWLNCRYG

[4] = target: 72 kDa type IV collagenase (Homo sapiens, UniProt P08253); assay: Inhibition of human […], matrix metalloprotease-2
Chain of 72 kDa type IV collagenase (P08253 whole entry): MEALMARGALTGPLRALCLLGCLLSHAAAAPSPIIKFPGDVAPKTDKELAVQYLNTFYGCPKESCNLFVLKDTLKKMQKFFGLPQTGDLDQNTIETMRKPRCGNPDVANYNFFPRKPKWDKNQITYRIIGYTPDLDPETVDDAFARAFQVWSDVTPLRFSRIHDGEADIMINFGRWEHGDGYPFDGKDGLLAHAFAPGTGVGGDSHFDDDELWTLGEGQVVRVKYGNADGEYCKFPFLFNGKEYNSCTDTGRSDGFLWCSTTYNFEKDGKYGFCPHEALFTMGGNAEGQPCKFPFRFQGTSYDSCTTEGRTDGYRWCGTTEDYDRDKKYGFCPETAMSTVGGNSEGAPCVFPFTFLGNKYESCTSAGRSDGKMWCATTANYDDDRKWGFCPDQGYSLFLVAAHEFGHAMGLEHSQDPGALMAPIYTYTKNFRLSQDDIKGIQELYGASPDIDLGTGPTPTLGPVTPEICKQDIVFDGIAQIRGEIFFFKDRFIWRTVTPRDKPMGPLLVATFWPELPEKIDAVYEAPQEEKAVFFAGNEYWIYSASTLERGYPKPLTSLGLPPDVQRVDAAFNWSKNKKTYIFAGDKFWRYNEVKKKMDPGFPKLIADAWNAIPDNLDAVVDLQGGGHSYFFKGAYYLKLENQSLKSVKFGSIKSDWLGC

[5] = target: Stromelysin-1 (Homo sapiens, UniProt P08254); assay: Inhibition of human fibroblast stromelysin, matrix metalloprotease-3
Chain of Stromelysin-1 (P08254 whole entry): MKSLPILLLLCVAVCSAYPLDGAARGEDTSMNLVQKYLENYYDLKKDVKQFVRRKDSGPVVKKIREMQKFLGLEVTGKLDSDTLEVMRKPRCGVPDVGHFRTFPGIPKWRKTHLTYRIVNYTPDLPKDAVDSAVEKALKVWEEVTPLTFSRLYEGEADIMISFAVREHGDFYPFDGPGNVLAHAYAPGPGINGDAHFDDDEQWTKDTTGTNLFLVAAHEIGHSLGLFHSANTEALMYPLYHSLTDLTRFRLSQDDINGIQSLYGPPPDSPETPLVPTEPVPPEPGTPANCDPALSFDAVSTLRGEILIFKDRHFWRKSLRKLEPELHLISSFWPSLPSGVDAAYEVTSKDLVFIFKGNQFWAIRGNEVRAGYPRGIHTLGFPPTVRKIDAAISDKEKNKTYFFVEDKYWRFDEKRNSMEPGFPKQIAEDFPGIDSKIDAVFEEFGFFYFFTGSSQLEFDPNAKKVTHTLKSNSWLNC

SMILES | pKi [1] | pKi [2] | pKi [3] | pKi [4] | pKi [5]
CCCCCCNC(=O)[C@H](Cc1c[nH]c2ccccc12)NC(=O)[C@H](CC(C)C)CP(=O)(O)CSc1ccc2ccccc2n1 | 6.36 | – | 6.99 | 6.52 | 5.18
CNC(=O)[C@H](Cc1ccccc1)NC(=O)[C@H](CC(C)C)[C@H](CSc1cccs1)C(=O)O | 5.82 | – | – | – | –

Molecules with a higher pKi [1], results first:

pKi [1] | pKi [2] | pKi [3] | pKi [4] | SMILES | pKi [5]
6.77 | < 6.21 | 6.79 | 6.33 | CCCCCCNC(=O)[C@H](Cc1c[nH]c2ccccc12)NC(=O)[C@@H](CC(=O)O)CC(C)C | –
8.30 | – | 8.40 | 7.85 | CC(C)C[C@H](CP(=O)(O)CSc1ccc2ccccc2n1)C(=O)N[C@H]1Cc2cn(c3ccccc23)CCCCCCNC1=O | 6.09
8.52 | – | 9.30 | 9.52 | CCCCCCNC(=O)[C@H](Cc1c[nH]c2ccccc12)NC(=O)[C@@H](CC(=O)NO)CC(C)C | –
